We go through one compound from ChEMBL document CHEMBL1125264, “2'-Deoxy-2'-methylenecytidine and 2'-deoxy-2',2'-difluorocytidine 5'-diphosphates: potent mechanism-based inhibitors of ribonucleotide reductase” (J Med Chem, 1991).

Test [1] addresses Ribonucleoside-diphosphate reductase (Escherichia coli). Nature of the test: Compound was evaluated for time-dependent inactivation of Ribonucleotide diphosphate reductase (RDPR) in Escherichia coli.
The subject of test [2] is Ribonucleoside-diphosphate reductase (Escherichia coli). Nature of the test: Compound was evaluated for time-dependent inactivation of rRibonucleotide diphosphate reductase (RDPR) in Escherichia coli.

Consider `C=C1[C@H](n2ccc(=O)[nH]c2=O)O[C@H](COP(=O)(O)OP(=O)(O)O)[C@H]1O`, for which the Ki in test [1] was 830 µM. Moreover, the K inact in test [2] was determined as 0.015 s⁻¹.
